Experimental findings from ChEMBL document CHEMBL1132795, “Stereoselective binding of an enantiomeric pair of stromelysin-1 inhibitors caused by conformational entropy factors” (Bioorg Med Chem Lett, 2000) are described below.

Each structure is given as a SMILES string.

Experiment [1] can be described thus: Binding affinity of compound to the stromelysin-1 catalytic domain at pH 6.7, 22 degree C.
Experiment [2] can be described thus: Binding affinity of compound to the stromelysin-1 catalytic domain at pH 6.0, 22 degree C.

The Kd is the free concentration of one partner at which half of the binding sites on the other are occupied at equilibrium, for simple one-to-one binding. On to `CC(C)[C@@H](NS(=O)(=O)c1ccc(-c2ccc(Br)cc2)cc1)C(=O)O`, for which the Kd in experiment [1] amounted to 679 nM.

For `CC(C)[C@H](NS(=O)(=O)c1ccc(-c2ccc(Br)cc2)cc1)C(=O)O`, the equilibrium dissociation constant (Kd) in experiment [2] turned out to be 6.7 nM; in experiment [1], 76.6 nM.
